From the NIST ThermoML archive (doi:10.1016/j.jct.2004.01.003)
Numbers after ± are expanded uncertainties.

Assay: mn = molality of the nth substance listed, in mol/kg
Conditions: 350 kPa, Liquid

O=[N+]([O-])[O-].O=[N+]([O-])[O-].[Ba+2] [barium dinitrate] + O
apparent molar volume [m3/mol]
Conditions	m1 = 0.02026	m1 = 0.0208	m1 = 0.03085	m1 = 0.0401	m1 = 0.05028	m1 = 0.07046	m1 = 0.1005	m1 = 0.1931
278.15 K	3.67e-05 ± 2.7e-06	3.55e-05 ± 1.8e-06	3.91e-05 ± 1.4e-06	3.99e-05 ± 1e-06	3.81e-05 ± 3.6e-06	4.19e-05 ± 2.6e-06	4.18e-05 ± 1.9e-06	4.43e-05 ± 9e-07
283.15 K	3.99e-05 ± 2.4e-06	3.77e-05 ± 1.1e-06	4.13e-05 ± 1.5e-06	4.27e-05 ± 1e-06	4.16e-05 ± 2.5e-06	4.41e-05 ± 1.9e-06	4.44e-05 ± 1.5e-06	4.63e-05 ± 9e-07
288.15 K	4.18e-05 ± 1.6e-06	4.07e-05 ± 9e-07	4.28e-05 ± 1.3e-06	4.4e-05 ± 1e-06	4.39e-05 ± 1.4e-06	4.53e-05 ± 1.2e-06	4.59e-05 ± 1e-06	4.77e-05 ± 9e-07
298.15 K	4.32e-05 ± 2.1e-06	4.44e-05 ± 1e-06	4.64e-05 ± 1.1e-06	4.8e-05 ± 1.2e-06	4.82e-05 ± 9e-07	4.84e-05 ± 9e-07	4.9e-05 ± 9e-07	5.08e-05 ± 9e-07
308.15 K	4.53e-05 ± 1.6e-06	4.61e-05 ± 1e-06	4.89e-05 ± 1.1e-06	5.05e-05 ± 9e-07	5.07e-05 ± 9e-07	5.07e-05 ± 9e-07	5.12e-05 ± 9e-07	5.3e-05 ± 8e-07
318.15 K	4.89e-05 ± 1.6e-06	4.77e-05 ± 2.9e-06	4.97e-05 ± 1.4e-06	5.24e-05 ± 9e-07	5.25e-05 ± 1e-06	5.26e-05 ± 9e-07	5.27e-05 ± 9e-07	5.48e-05 ± 8e-07
328.15 K	5.14e-05 ± 1.1e-06	5.01e-05 ± 1.2e-06	5.17e-05 ± 1.1e-06	5.39e-05 ± 9e-07	5.38e-05 ± 1.1e-06	5.39e-05 ± 1e-06	5.38e-05 ± 9e-07	5.57e-05 ± 8e-07
338.15 K	5.31e-05 ± 1.9e-06	5.15e-05 ± 1.1e-06	5.29e-05 ± 1.2e-06	5.46e-05 ± 9e-07	5.43e-05 ± 1.2e-06	5.46e-05 ± 1e-06	5.47e-05 ± 9e-07	5.66e-05 ± 8e-07
348.15 K	5.4e-05 ± 2.7e-06	5.21e-05 ± 9e-07	5.35e-05 ± 1.2e-06	5.52e-05 ± 9e-07	5.49e-05 ± 1e-06	5.51e-05 ± 9e-07	5.52e-05 ± 9e-07	5.71e-05 ± 9e-07
358.15 K	5.5e-05 ± 2.1e-06	5.21e-05 ± 9e-07	5.38e-05 ± 1.1e-06	5.49e-05 ± 1.1e-06	5.53e-05 ± 1.3e-06	5.51e-05 ± 1.1e-06	5.54e-05 ± 1e-06	5.73e-05 ± 8e-07
368.15 K	4.76e-05 ± 8e-06	5.17e-05 ± 9e-07	5.39e-05 ± 1.4e-06	5.44e-05 ± 9e-07	5.5e-05 ± 9e-07	5.46e-05 ± 8e-07	5.5e-05 ± 8e-07	5.71e-05 ± 9e-07
